These results are taken from patent US20220267774A1, “METHODS AND COMPOSITIONS TO DIRECT BREAKDOWN OF INSULIN MRNA IN BENIGN FASHION” (CITY OF HOPE, priority 2019, published 2022).

Assay [1] relates to 293T cells transfected with INS-DRiP-GFP. In words: Effect of ER stress inducers on DRiP expression in INS-DRiP-GFP transfected cells. The conditions noted are these: western blot and flow cytometry. It is filed as cell-based, human. An excerpt: FIG. 8A is a western blot of 293T cell lysates (left to right) in nontransfected cells (NT), or cells transfected with INS-DRiP-GFP that were untreated (−), stimulated with thapsigargin (TG), or stimulated with tunicamycin (TM). The western blot in FIG. 8A is labeled using anti-GFP, anti-insulin, and anti-actin antibodies. FIG. 8B is a chart depicting densitometry analyses of the western blot in FIG. 8A analyzing the GFP (black bars) and insulin bands (gray bars) and shown as induction ratio±s.d. where the intensity of the nontreated cells was used as reference (right).
The effect of endoplasmic reticulum stress (ER stress) on translation initiation was also determined. Cells transfected with INS-DRiP-GFP were stimulated with the ER stress-inducers thapsigargin (TG) or tunicamycin (TM).
On the technique in general: Immunoblotting shows a protein as a band on a membrane.

In assay [2] the test system is human beta cell line (1.1B4). In words: Insulin mRNA and DRiP protein expression in beta cell line under stress. The conditions noted are these: 1.1B4 cells stressed with TG. It is filed as cell-based. An excerpt:
FIGS. 22A-B illustrates ex vivo cleavage of insulin mRNA in a cell line. FIG. 22A is a bar graph illustrating insulin mRNA expression change when beta cells are stressed with Thapsigargin (TG). FIG. 22B is a bar graph illustrating DRiP protein expression when beta cells are stressed with TG.
Ex vivo insulin mRNA expression and DRiP protein expression in beta cell line under stress. Ex vivo cleavage of insulin mRNA was examined in a 1.1B4 cell line. A human beta cell line (1.1B4) was stressed with Thapsigargin (chemical), with or without inhibition of IRE1, followed by analysis of the insulin mRNA expression and DRiP protein expression. […] But it is not enough to prevent an increase in DRiP expression. The protective SNP may have this effect ex vivo.

Assay [3] concerns cells transfected with INS-DRiP-GFP vectors. Description: DRiP-GFP expression from INS-DRiP-GFP vectors. It is filed as cell-based. The settings on record: both variants. An excerpt: Method: Two vectors of INS-DRiP-GFP (one of the protective genotype and one of the susceptible genotype) that express insulin and DRiP linked to GFP were created (FIG. 28). The vectors were transfected into cells, and GFP expression was observed when translation is started at the DRiP start codon.

Assay [4] addresses HLA-DQ8trans (Homo sapiens, UniProt P01909+P01920, A45G/D89A/E77G/H199R/N214S/Y58L). The settings on record: cell-free; cited from earlier work.
In assay [5] the target is HLA-DQ8cis (Homo sapiens, UniProt P01909+P01920, A209T/A45G/C70Q/D89A/E183D/E77G/F237L/G63E/H199R/I129T/K197E/L178F/L74F/L98V/Q57E/Q76R/S185I/S97I/T217I/T49S/V73L/Y58L). The conditions noted are these: cell-free; cited from earlier work.
Assay [6] concerns the target HLA-DQ2trans (Homo sapiens, UniProt P01909+P01920, A45G/A70V/C70Q/D89A/E106A/E183D/E77G/E98D/G63E/H199R/I129T/K197E/L107V/L178F/L74F/L98V/N214S/P84L/P87L/Q57E/Q76R/S185I/S97I/T103K/T109R/T172A/T49S/T60S/V73L/V78E/V99I/Y58L/Y62S/Y69I/Y79F). The conditions noted are these: cell-free; cited from earlier work.
A further assay deals with HLA-A2. The conditions noted are these: cited from earlier work.
Assay [7] has as its target T1, HLA-DQ8trans (human, UniProt P01909 24-216; P01920 33-230, limits assumed).
T1 construct: Formed by the alpha-chain of HLA-DQ2 (DQA1*05:01) and the beta-chain of HLA-DQ8 (DQB1*03:02) (so in the source)
T1 MHC II alpha: not shown
T1 MHC II beta: not shown
In words: cell-free HLA-DQ binding studies.

The target of another assay is HLA-DQ2cis (human, UniProt P01909 24-216, limits assumed). Description: cell-free HLA-DQ binding studies.
Assay [8] addresses T2, HLA-DQ2trans (human, UniProt P01909 24-216, limits assumed).
T2 construct: Formed by the alpha-chain of HLA-DQ8 (DQA1*03:01) and the beta-chain of HLA-DQ2 (DQB1*02:01) (so in the source)
T2 MHC II alpha: not shown
T2 MHC II beta: not shown
Description: cell-free HLA-DQ binding studies.

Assay [9] concerns the target T3, HLA-DQ8cis (human, UniProt P01909 24-216; P01920 33-230, limits assumed).
T3 MHC II alpha: not shown
T3 MHC II beta: not shown
Description: cell-free HLA-DQ binding studies.

For tunicamycin [TM], the “expression of DRiP polypeptide” value in [1] is “increased by TG but not TM”.

Turning to `C/C=C(/C)C(=O)O[C@H]1C(C)=C2[C@H]([C@@H]1OC(=O)CCCCCCC)[C@@](C)(OC(C)=O)C[C@H](OC(=O)CCC)[C@@]1(O)[C@H]2OC(=O)[C@@]1(C)O` [TG, thapsigargin], the DRiP protein expression result in assay [2] is reported as “goes up”. Moreover, the “insulin RNA expression” value in [2] (with or without IRE1 inhibition) is reported as “goes down”. For the same molecule, the “effect on DRiP-GFP expression” value in [3] is listed as “increased in both variants”. Further, the “expression of DRiP polypeptide” value in [1] was “increased”.

With MLYQHLLPL [INS-DRiP1-9], the “binding affinity to HLA-DQ8trans” value at HLA-DQ8trans [4] is recorded as “strong binding affinity”. Also, the “binding affinity to HLA-DQ8cis” value at HLA-DQ8cis [5] was “strong binding affinity”. Further, the “binding affinity to HLA-DQ2trans” value at HLA-DQ2trans [6] was “not”. Also, the “binding to HLA-A2” value with HLA-A2 was “high affinity”.

B1: INS-DRiP1-9 epitope MLYQHLLPL (peptide)
peptide: MLYQHLLPL
notes: Synthetic counterpart of the N-terminal 9-mer of INS-DRiP; also called 9-mer peptide; INS-DRiP peptide fragment
On to B1, for which the binding result with HLA-DQ8trans [7] is “binds”; with HLA-DQ2cis, “no binding”; with HLA-DQ2trans [8], “no binding”; with HLA-DQ8cis [9], “binds”.
